Experimental data: patent publication US20090118375A1, “Optically active phthalamides” (priority 2004, published 2009)

How the values were obtained:
[1] = test system: Plutella xylostella; assay: Plutella test; assay type: in vivo; details: 20 ppm, cabbage leaves dipped
Experimental: (§1) To produce a suitable preparation of active compound, 1 part by weight of active compound is mixed with the stated amounts of solvent and emulsifier, and the concentrate is diluted with emulsifier-containing water to the desired concentration.
Cabbage leaves (Brassica oleracea) are treated by being dipped into the preparation of active compound of the desired concentration and are populated with caterpillars of the diamondback moth (Plutella xylostella) while the leaves are still moist.
(§2) After the desired period of time, the kill in % is determined. 100% means that all caterpillars have been killed; 0% means that none of the caterpillars have been killed.

[2] = test system: Boophilus microplus (SP-resistant Parkhurst strain); assay: Boophilus microplus test (INJ), resistant cattle tick, injection method; assay type: in vivo; details: concentration of active compound 20 μM, injection into abdomen of adult satiated females
Experimental: Test with Resistant Monoxenic Cattle Tick/SP-Resistant Parkhurst Strain Injection Method
Boophilus microplus (INJ)
10 mg active compound are dissolve in 0.5 ml Dimethylsulfoxid. Serial dilutions are made to obtain the desired rates.
The test is carried out in 5 replications. 1 μl of the solutions is injected into the abdomen, and the animals are transferred to dishes and kept in a climate-controlled room. After 7 days, activity is checked by examination for deposition of fertile eggs. Eggs whose fertility is not externally visible are stored in glass tubes in a controlled-environment cabinet until the larvae have hatched after ca. 24 days. An activity of 100% denotes that none of the ticks has laid fertile eggs.

[3] = test system: Musca domestica; assay: Housefly assay (Musca domestica); assay type: in vivo; details: 100 ppm, adult flies
Experimental: (§3) 10 mg active compound are dissolve in 0.5 ml dimethyl sulphoxide. Serial dilutions are made to obtain the desired rates.
Prior to the assay, a piece of kitchen sponge (ca. Ø 1.5 cm) is soaked with 0.8 ml of sugar solution and 0.2 ml of aqueous compound dilution and is placed into a container (4×4×2 cm). 10 adult Musca domestica flies (WHO/N strain) are anaesthetized by CO2 and also placed into the container. The container is closed with a perforated lid. […]
100% efficacy=all flies are killed 0% efficacy=no flies are killed

[4] = test system: Spodoptera frugiperda; assay: Spodoptera frugiperda test (spray application); assay type: in vivo; details: topical, 168 h, 20 g/ha, spray on maize leaf slices, after 7 d, read-out: Kill rate in % after 7 d
Experimental: Spodoptera frugiperda Test (Spray Application)
as §1
Maize leave slices (Zea mays) are treated by being sprayed with the preparation of the active compound of the desired concentration and are infested with caterpillars of the fall army worm (Spodoptera frugiperda) after the leaves have dried.
(§4) After the specified period of time, the mortality in % is determined. 100% means that all the […] have been killed; 0% means that none of the […] have been killed.

[5] = test system: Lucilia cuprina 1st instar larvae; assay: Blowfly larval assay (Lucilia cuprina); assay type: in vivo; details: 100 ppm
Experimental: as §3
Approximately 20 Lucilia cuprina 1st instar larvae are transferred into a test tube containing 1 cm^3 of minced horse meat and 0.5 ml aqueous dilution of test compound. After 48 hrs percentage of larval mortality are recorded.
100% efficacy=all larvae are killed 0% efficacy=normally developed larvae after 48 hrs

[6] = log P by HPLC on reversed-phase column (EEC Directive 79/831 Annex V.A8); assay type: physicochemical; details: reversed-phase C18 HPLC column, pH 2.3, 43° C.
Experimental: The log P values given in the preparation examples and tables above are determined in accordance with EEC Directive 79/831 Annex V.A8 by HPLC (High Performance Liquid Chromatography) on a reversed-phase column (C 18). Temperature: 43° C.
In the acidic range, determination is carried out at pH 2.3 using the mobile phases 0.1% aqueous phosphoric acid and acetonitrile; linear gradient from 10% acetonitrile to 90% acetonitrile (in the tables marked with a)).
Calibration is carried out using unbranched alkan-2-ones (of 3 to 16 carbon atoms) with known lop P values (determination of the log P values by the retention times using linear interpolation between two successive alkanones).

[7] = test system: Spodoptera exigua; assay: Spodoptera exigua test; assay type: in vivo; details: 168 h, cabbage leaves dipped, after 7 d, read-out: Kill rate in % after 7 d
Experimental: as §1
Cabbage leaves (Brassica oleracea) are treated by being dipped into the preparation of active compound of the desired concentration and are populated with caterpillars of the army worm (Spodoptera exigua) while the leaves are still moist.
as §2

[8] = test system: Tetranychus urticae; assay: Tetranychus test (OP-resistant/spray application); assay type: in vivo; details: 100 g/ha, spray on bean leaf slices
Experimental: Tetranychus test (OP-Resistant/Spray Application)
as §1
Bean leave slices (Phaseolus vulgaris), which are infested with all stages of the two-spotted spider mite (Tetranychus urticae), are treated by being sprayed with the preparation of the active compound of the desired concentration.
as §4

[9] = test system: Myzus persicae; assay: Myzus test (spray application); assay type: in vivo; details: topical, 120 h, spray on Chinese cabbage leaves, after 5 d, read-out: Kill rate in % after 5 d
Experimental: Myzus Test (Spray Application)
as §1
Chinese cabbage leaves (Brassica pekinensis), which are infested by the green peach aphid (Myzus persicae), are treated by being sprayed with the preparation of the active compound of the desired concentration.
as §4

CCSC[C@H](C)NC(=O)c1c(Br)cccc1C(=O)Nc1ccc(C(C(F)F)C(F)(F)F)cc1Cl (stereo partly shown) [Compound 54]
Kill rate in % after 7 d [1]: 100% | melting point: 100 °C

Cc1cc(C(F)(C(F)F)C(F)(F)F)ccc1NC(=O)c1cccc(I)c1C(=O)N[C@@H](C)CS(C)(=O)=O (stereo partly shown) [Compound 18]
Kill rate in % after 7 d [1]: 100% | melting point: 124 °C

CSC[C@H](C)NC(=O)c1c(Br)cccc1C(=O)Nc1ccc(C(F)(C(F)F)C(F)(F)F)cc1Br (stereo partly shown) [Compound 67]
Kill rate in % after 7 d [1]: 100% | melting point: 138 to 142 °C

CCSC[C@H](C)NC(=O)c1c(I)cccc1C(=O)Nc1ccc(C(F)(C(F)F)C(F)(F)F)cc1C (stereo partly shown) [Compound 5]
Kill rate in % after 7 d [2]: 100% | Kill rate in % after 4 d [3]: 100% | melting point: 105 °C

CCS(=O)(=O)C[C@H](C)NC(=O)c1c(I)cccc1C(=O)Nc1ccc(C(C(F)F)C(F)(F)F)cc1Br (stereo partly shown) [Compound 35]
Kill rate in % after 4 d [3]: 100% | melting point: 122 °C

CCS(=O)(=O)C[C@H](C)NC(=O)c1c(Br)cccc1C(=O)Nc1ccc(C(F)(C(F)F)C(F)(F)F)cc1Br (stereo partly shown) [Compound 69]
pest or weed control at 20 g/ha [4]: 100% | Kill rate in % after 2 d [5]: 100%

Cc1cc(C(F)(C(F)F)C(F)(F)F)ccc1N (stereo not shown) [4-(1-Difluoromethyl-1,2,2,2-tetrafluoro-ethyl)-2-methyl-phenylamine]
chromatographic logP [6]: 2.74

CCSC[C@H](C)NC(=O)c1c(I)cccc1C(=O)Nc1ccc(C(C(F)F)C(F)(F)F)cc1Br (stereo partly shown) [Compound 24]
Kill rate in % after 7 d [2]: 100% | melting point: 160 °C

Cc1cc(C(C(F)F)C(F)(F)F)ccc1N (stereo not shown) [4-(1-Difluoromethyl-2,2,2-trifluoro-ethyl)-2-methyl-phenylamine]
chromatographic logP [6]: 2.02

C[C@@H](CS(C)(=O)=O)NC(=O)c1c(I)cccc1C(=O)Nc1ccc(C(F)(C(F)F)C(F)(F)F)cc1F (stereo partly shown) [Compound 32]
Kill rate in % after 2 d [5]: 100% | Kill rate in % after 4 d [3]: 100%

C[C@@H](CS(C)(=O)=O)NC(=O)c1c(I)cccc1C(=O)Nc1ccc(C(C(F)F)C(F)(F)F)cc1F (stereo partly shown) [Compound 33]
Kill rate in % after 7 d [2]: 100% | Kill rate in % after 4 d [3]: 100% | melting point: 144 to 147 °C

CCS(=O)(=O)C[C@H](C)NC(=O)c1c(I)cccc1C(=O)Nc1ccc(C(F)(C(F)F)C(F)(F)F)cc1Cl (stereo partly shown) [Compound 25]
Kill rate in % after 2 d [5]: 90%

CCS(=O)(=O)C[C@H](C)NC(=O)c1c(I)cccc1C(=O)Nc1ccc(C(F)(C(F)F)C(F)(F)F)cc1F (stereo partly shown) [Compound 36]
Kill rate in % after 2 d [5]: 100%

CCSC[C@H](C)NC(=O)c1c(I)cccc1C(=O)Nc1ccc(C(F)(C(F)F)C(F)(F)F)cc1F (stereo partly shown) [Compound 8]
pest or weed control at 20 ppm [7]: 100% | melting point: 138 to 141 °C

CCSC[C@H](C)NC(=O)c1c(I)cccc1C(=O)Nc1ccc(C(C(F)F)C(F)(F)F)cc1Cl (stereo partly shown) [Compound 23]
Kill rate in % after 7 d [2]: 100% | melting point: 165 °C

CCSC[C@H](C)NC(=O)c1c(I)cccc1C(=O)Nc1ccc(C(C(F)F)C(F)(F)F)cc1F (stereo partly shown) [Compound 21]
Kill rate in % after 4 d [3]: 100% | melting point: 144 °C

CCSC[C@H](C)NC(=O)c1c(I)cccc1C(=O)Nc1ccc(C(C(F)F)C(F)(F)F)cc1C (stereo partly shown) [Compound 4]
Kill rate in % after 7 d [2]: 100% | Kill rate in % after 2 d [5]: 100%

CCS(=O)(=O)C[C@H](C)NC(=O)c1c(I)cccc1C(=O)Nc1ccc(C(C(F)F)C(F)(F)F)cc1F (stereo partly shown) [Compound 37]
Kill rate in % after 2 d [5]: 100%

C[C@@H](CS(C)(=O)=O)NC(=O)c1c(I)cccc1C(=O)Nc1ccc(C(C(F)F)C(F)(F)F)cc1Cl (stereo partly shown) [Compound 28]
Kill rate in % after 4 d [3]: 100% | melting point: 116 to 120 °C

C[C@@H](CS(C)(=O)=O)NC(=O)c1c(Cl)cccc1C(=O)Nc1ccc(C(F)(C(F)F)C(F)(F)F)cc1Cl (stereo partly shown) [Compound 47]
pest or weed control at 20 ppm [7]: 100% | melting point: 180 °C

CSC[C@H](C)N=C1OC(=O)c2cccc(I)c21 [4-Iodo-3-[(S)-1-methyl-2-methylsulfanyl-ethylimino]-3H-isobenzofuran-1-one]
chromatographic logP [6]: 3.87

CCS(=O)(=O)C[C@H](C)NC(=O)c1c(I)cccc1C(=O)Nc1ccc(C(F)(C(F)F)C(F)(F)F)cc1C (stereo partly shown) [Compound 13]
pest or weed control at 20 ppm [7]: 100% | melting point: 112 °C

CSC[C@H](C)NC(=O)c1c(Cl)cccc1C(=O)Nc1ccc(C(C(F)F)C(F)(F)F)cc1Cl (stereo partly shown) [Compound 42]
Kill rate in % after 5 d [8]: 80%

C[C@@H](CS(C)(=O)=O)NC(=O)c1c(I)cccc1C(=O)Nc1ccc(C(C(F)F)C(F)(F)F)cc1Br (stereo partly shown) [Compound 31]
pest or weed control at 100 g/ha [9]: 100% | Kill rate in % after 4 d [3]: 100%

CSC[C@H](C)NC(=O)c1c(Cl)cccc1C(=O)Nc1ccc(C(F)(C(F)(F)F)C(F)(F)Br)cc1C (stereo partly shown) [Compound 38]
Kill rate in % after 7 d [1]: 100% | melting point: 184 to 186 °C

Cc1cc(C(F)(C(F)F)C(F)(F)F)ccc1NC(=O)c1cccc(Cl)c1C(=O)N[C@@H](C)CS(C)(=O)=O (stereo partly shown) [Compound 44]
Kill rate in % after 7 d [1]: 100% | Kill rate in % after 5 d [8]: 80%

Cc1cc(C(F)(C(F)(F)F)C(F)(F)Br)ccc1NC(=O)c1cccc(I)c1C(=O)N[C@@H](C)CS(C)(=O)=O (stereo partly drawn) [Compound 19, N^1-[4-(2-Bromo-1,2,2-trifluoro-1-trifluoromethyl-ethyl)-2-methyl-phenyl]-3-iodo-N^2-[2-methanesulfonyl-(S)-1-methyl-ethyl]-phthalamide]
pest or weed control at 20 ppm [7]: 100% | melting point: 128 °C

CSC[C@H](C)NC(=O)c1c(I)cccc1C(=O)Nc1ccc(C(C(F)F)C(F)(F)F)cc1C (stereo partly shown) [Compound 11]
Kill rate in % after 7 d [1]: 100% | melting point: 184 °C

CCSC[C@H](C)NC(=O)c1c(I)cccc1C(=O)Nc1ccc(C(F)(C(F)(F)F)C(F)(F)Br)cc1C (stereo partly shown) [Compound 1]
Kill rate in % after 2 d [5]: 100%
